Here are results for 2 substances from patent publication US8691762B2, “Methods and assays for treating subjects with SHANK3 deletion, mutation or reduced expression” (Mount Sinai School of Medicine, priority 2010, dated 2014).

Entries after “also recorded” stand apart in the source; their conditions may differ.

For assay [1], the system named is Shank3 heterozygous mice. Kind of assay: Long-term potentiation at Schaffer collateral-CA1 synapses, hippocampal slices from treated Shank3 heterozygous mice. It counts as in vivo, mouse. To be noted: for LTP (normalized field EPSP slope), higher dose: rhIGF-1 i.p. 240 μg/kg/day for 2 weeks from P13-15. On the procedure:
FIG. 8. […] Ampakine CX1837 or HPCD vehicle is administered daily via i.p. injections (1.5 mg/kg body weight) starting at 2 weeks old and continued for 4 weeks for electrophysiological recordings.
(§1) FIG. 10A-10B. Recombinant human IGF-1 (rhIGF-1) reverses deficits in long-term potentiation and basal synaptic properties at Schaffer collateral-CA1 synapses in Shank3 heterozygous mice in a dose-dependent fashion. rhIGF-1 is administered daily via i.p. injections (120 or 240 μg/kg body weight) starting at P13-15 and continued for 2 weeks for electrophysiological recordings. A. LTP was induced with high-frequency stimulation and normalized field EPSP slope was plotted as a function of time. […] B. AMPA receptor responses were assessed in the mice. Slices were incubated in the presence of APV and mean field EPSP slope as a function of fiber volley is shown for slices derived from wildtype (WT), Shank3 heterozygous (Het) mice, and Het injected with rhIGF-1. Deficits in AMPA receptor signaling observed in Shank3 heterozygotes were reversed with 2-week rhIGF-1 treatment.

A further assay has as its system AMPA receptor. Kind of assay: AMPA receptor component of I/O function (field EPSP slope vs fiber volley in presence of APV). The note with it: Shank3 Het. The class given is in vivo, mouse. As to the method: as §1
IGF-1 has been approved for clinical use as a recombinant full-length protein. Full-length IGF-1 enters the CNS through an interaction with lipoprotein-related receptor 1 (LRP1), after activity dependent cleavage of IGF binding protein-3 (IGFBP-3) by matrix metalloproteinase-9 (MMP9) (Nishijima et al., 2010). […]

The subject of the next assay is Akt. As to the kind of experiment: Western blot for total- and phospho-Akt in hippocampus. It counts as in vivo, mouse. The source says: FIG. 6. IGF1 treatment activates PI3K-Akt pathway in the hippocampus. PI3K binds to AMPARs and is required to maintain AMPAR surface expression during long-term potentiation.
It is interesting to note that IGF-1 activates the mTOR/Akt pathway as this has been implicated in other neurodevelopmental disorders (Veenstra-Vanderweele et al., 2012).
A general note: In western blotting, separated proteins are transferred to a membrane and probed.

Assay [2] has as its system Shank3 heterozygous mice. As to the kind of experiment: Motor performance and learning, latency to fall off a rotating rod. It counts as in vivo, mouse. The note with it: IGF-1 240 μg/kg/day for 2 weeks; male Shank3 Het vs vehicle. On the procedure:
FIG. 11. IGF-1 treatment reverses motor deficits in Shank3 heterozygous mice.
Phelan-McDermid syndrome frequently presents with hypotonia and at least transient motor deficits, and subtle motor deficits have been observed in Shank3-heterozygous mice (Bozdagi et al., 2010). To determine whether treatment with full-length IGF-1 may improve motor performance in Shank3-deficient mice, male heterozygous mice were treated with either vehicle or IGF-1 (240 μg/kg/day for 2 weeks).

In the next assay the test system is Shank3 KO mice. The note with it: (1-3)IGF-1 peptide, same protocol as heterozygotes, N=2.

Protocol for Shank3 KO mice: Brief experimental procedures: Hippocampal slices (350 μm) are prepared from 1-3 month old Shank3 heterozygous, Shank3 knockout, and wildtype littermates, treated with (1-3) IGF-1 peptide, full-length IGF1, growth hormone, AMPAkine or saline or other appropriate control. Slices are perfused with Ringer's solution, bubbled with 95% O2/5% CO2, at 32° C., during extracellular recordings. Baseline of field excitatory postsynaptic potentials (fEPSPs) recorded from stratum radiatum in area CA1, evoked by stimulation of the Schaffer collateral-commissural afferents with bipolar tungsten electrodes placed into area CA3. Long-term potentiation (LTP) is induced either by a high-frequency stimulus (four trains of 100 Hz, 1 s stimulation separated by 5 min), or by theta-burst stimulation (TBS) (10 bursts of four pulses at 100 Hz separated by 200 ms), with a success rate >90% for control and genetically-modified animals with all stimulation protocols. To induce long-term depression (LTD), Schaffer collaterals were stimulated by a low frequency stimulus (900 pulses at 1 Hz for 15 min) or paired-pulse low frequency stimulus. LTD was induced with a success rate >90% for control animals. […]

Consider “IGF-1: recombinant human IGF-1, a 7.6 kDa protein, SEQ ID NO:3”, for which the “LTP (normalized field EPSP slope), lower dose” value in the assay with Shank3 heterozygous mice [1] (rhIGF-1 i.p. 120 μg/kg/day for 2 weeks, Shank3 Het) is given as “not associated with significant reversal”. For the same substance, the “LTP (normalized field EPSP slope), higher dose” value is on record as “effective in rescuing defective LTP” with Shank3 heterozygous mice [1] (Shank3 Het) and “reversed by the higher” in the assay with Shank3 heterozygous mice [1] (Shank3 Het, listed as rhIGF-1). In addition, in the assay with AMPA receptor (IGF-1 240 μg/kg/day i.p. 2 weeks, wildtype 0.625±0.08, untreated Het 0.31±0.045, p=0.004), the “Mean slope of the I/O function (AMPA receptor component)” value was determined as 0.618±0.075. The “Deficits in AMPA receptor signaling (AMPA component of I/O function)” value with AMPA receptor (rhIGF-1 i.p. 240 μg/kg/day for 2 weeks, slices in APV) is listed as “reversed”. Besides, in the assay on Akt (hippocampal lysates, Shank3 Het injected 2 weeks, n=10, vehicle 0.36±0.03 (n=8), 1-tailed p=0.040), the phospho-Akt/Akt ratio came out at 0.55±0.04. In the assay on Akt (hippocampus, heterozygote mice, vs vehicle injected, n=3, P=0.0366), the “phosphorylation of Akt (pAkt1)” value is “increase”. In addition, the “Latency to fall off rotating rod / motor performance” value with Shank3 heterozygous mice [2] is recorded as “significantly longer latencies; also recorded: Significant enhancement of motor performance”.

On to “glycine-proline-glutamic acid [(1-3)IGF-1]”, for which, in the assay with Shank3 heterozygous mice [1] ((1-3)IGF-1 i.p. 0.01 mg/g (10 μg/g/day) daily for 2 weeks from P13-15, Shank3 Het vs vehicle), the “LTP (normalized field EPSP slope)” value is “reversed; also recorded: restored normal hippocampal LTP”. Further, the “LTP (fEPSP versus time)” value with Shank3 KO mice is listed as “reversed the impairment in LTP”.
